Like-named read-outs stand apart in the source and are kept apart here.
Key:
WT-TTR = target: T1, WT-TTR (Homo sapiens, UniProt P02766); experiment: Stagnant acid-mediated TTR aggregation (fibril formation) assay, turbidity at 340 nm; format: biochemical; conditions: for remaining activity at 7.2 µM / remaining activity at 21.6 µM / remaining activity at 50 µM / remaining activity at 100 µM: 72 h; for inhibition of TTR fibrillization: inhibitor 21.6 μM; for remaining activity at 50 µM: read-out: % FF at 50 μM; for remaining activity at 100 µM / inhibition at 100 µM: pH 4.4, compound 100 μM; for remaining activity at 100 µM: read-out: % FF; for inhibition at 100 µM: read-out: % Inhibition
T1 construct: made in house
Method: Stagnant Acid-Mediated TTR Aggregation Assay.
After 1 h, the samples were diluted with 0.5 ml of 200 mM sodium acetate buffer containing 100 mM KCl and 1 mM EDTA. Samples after mild vortexing were incubated at 37° C. for the desired amount of time without stirring to evaluate the efficacy of the inhibitors. The extent of aggregation was probed by turbidity measurements at 340 nm using Tecan GENios microplate reader. […] The extent of TTR fibril formation in the absence of inhibitor was defined to be 100%. […] All experiments were done in triplicate. […] The IC50 was determined by plotting mean of % inhibition vs log and fitted to sigmoid equation:
(§1) The experiments were conducted at 25° C. After 1 h, the samples were diluted with 0.5 mL of 200 mM sodium acetate buffer pH 4.4 containing 100 mM KCl and 1 mM EDTA, vortexed, and incubated at 37° C. for 72 h. […] The stoichiometry of the binding of the inhibitors was determined by HPLC as described by Green et al., N. S. Palaninathan, S, L, Sacchettini, J. e. […] Dissociation constant of binding of these compounds to TTR was determined by fluorescence titration, and data were fitted into the Adair equation for two bind mg.

TTR [1] = target: T2, TTR (Homo sapiens, UniProt P02766); experiment: Dissociation constant by fluorescence titration (Adair equation, two sites); format: binding
T2 construct: made in house
Method: as §1
Small aliquots of 1 mM ligands solutions were successively added to the […] in 100 mM sodium acetate buffer pH 4.4 at […] under constant stirring. After each addition sample was left for 2 min. […] Readings were corrected for buffer blank, dilution and inner filter effect. The inner filter effect was corrected by using the following equation,
From the titration data the dissociation constant was determined by fitting data in following Adair equation for two binding sites-

TTR [2] = target: T2, TTR; experiment: Time course (kinetics) of fibril formation, turbidity at 340 nm for 3 h; format: biochemical; conditions: TTR 7.2 μM, inhibitor 21.6 μM, 37° C., pH 4.4, 3 h
Method: Time Course of Fibril Formation. The kinetics of inhibition was studied by incubating […] TTR with […] of different inhibitors in 100 µl of 5 mM phosphate buffer pH 7.2 for 30 min in a 96 microwell plate. […] of 0.2 M sodium acetate buffer pH 4.4 containing 1 mM EDTA and 100 mM KCl was added. The difference in turbidity was assessed by measuring the change in absorbance at 340 nm on Tecan GEnios microplate reader using Magellan software. For kinetics, parameters were set for 30 cycles at 37° C. at the interval of 5 min each and 2 min orbital shaking (low speed) between cycles and 10 sec shaking (normal speed) before measurement. All experiments were performed in triplicates. Change in absorbance at 340 nm was plotted against time in the presence and absence of inhibitors initial rate of fibril formation was calculated from the slope by linear fitting of the data.
All experiments were performed three times in triplicates. Change in absorbance (mean of three different experiments) at 340 nm was plotted against time in the presence and absence of inhibitors. Initial rate of fibril form action was calculated from the value of the slope by linear fitting of the change in absorbance at 340 nm as a function of time.

TTR fibers = target: T3, TTR fibers (Homo sapiens, UniProt P02766); experiment: Fibril disruption assay; format: biochemical; conditions: three doses (7.2 μM each), 15 days, Th-T fluorescence
T3 construct: made in house
Method: Fibril Disruption Assay. […] The disruption was followed for 7 days by turbidity measurements at 340 nm and Th-T fluorescence. A second dose of the inhibitor (7.2 μM) was added after 24 h of incubation, and samples were incubated and monitored further for 5-6 days. After 15-20 days of incubation, samples were examined by transmission electron microscopy (TEM). All experiments were done thrice in triplicates each time.

TTR tetramer = target: T4, TTR tetramer (Homo sapiens, UniProt P02766); experiment: Urea denaturation (tetramer dissociation, tryptophan fluorescence); format: biochemical; conditions: TTR 1.8 μM, inhibitor 5.4 μM (1:3), 6 M urea, 25° C., up to […]
T4 construct: made in house

[3] = 50% reduction in fibril formation, TTR 7.2 μM, pH 4.4, read-out: IC50 ± SE
[4] = pH 4.4, TTR 7.2 μM, inhibitor 7.2 μM (1:1), pH 4.4, 37° C., no inhibitor = 100%, read-out: % FF 1:1
[5] = pH 4.4, TTR 7.2 μM, inhibitor 21.6 μM (1:3), pH 4.4, 37° C., no inhibitor = 100%, read-out: % FF 1:3
[6] = TTR amyloid formation, 37° C., read-out: IC50
[7] = pH 4.4; read-out: Dissociation Constant Kd1
[8] = pH 4.4; read-out: Dissociation Constant Kd2
[9] = biphenyl ether 50 μM, WT-TTR 7.2 μM
[10] = Table 3, WT-TTR 7.2 μM, read-out: IC50

Row | SMILES | IC50 (WT-TTR; [3]) [µM] | remaining activity at 7.2 µM (WT-TTR; [4]) [%] | remaining activity at 21.6 µM (WT-TTR; [5]) [%] | IC50 (WT-TTR; [6]) [µM] | Kd (TTR [1]; [7]) [µM] | inhibition at 21.6 µM (TTR [2]) [%] | remaining activity at 50 µM (WT-TTR; [9]) [%] | IC50 (WT-TTR; [10]) [µM] | disruption of preformed TTR fibers (TTR fibers) | further results
1 | Oc1ccccc1-c1nnc(S)o1 [Compound 11] | 3.1 ± 0.05 | 21 | 0 | 0.47 to 3.5 | 0.042 ± 0.00235 | > 80 | – | – | – | inhibition of TTR fibrillization (WT-TTR; TTR 7.2 μM): completely; Kd (TTR [1]; [8]): 0.0726 ± 0.0103 µM
2 | COc1cc(C=O)ccc1Oc1ccccc1 [Compound 9] | 1.31 ± 0.08 | 12 | 0 | 0.47 to 3.5 | 0.088 ± 0.0101 | > 80 | 0 | 1.31 | more effective | –
3 | COc1cc(CCl)ccc1Oc1ccc(Cl)cc1Cl [Compound 5] | 3.16 ± 0.04 | 26 | 0 | – | – | > 80 | 0 | 3.16 | more effective | IC50 (WT-TTR): 0.47 to 3.5 µM
4 | Oc1cc(CCl)ccc1Oc1ccc(Cl)cc1Cl [Compound 3] | – | – | – | – | – | > 80 | – | – | – | remaining activity at 7.2 µM (WT-TTR; pH 4.4, read-out: % FF 1:1): 5%; remaining activity at 21.6 µM (WT-TTR; pH 4.4, read-out: % FF 1:3): 0%; remaining activity at 50 µM (WT-TTR): 0%
5 | O=C(O)c1ccc(Oc2ccc(Cl)cc2Cl)c(O)c1 [Compound 7] | 2.59 ± 0.14 | 29 | 13.3 | 0.47 to 3.5 | 0.027 ± 0.00803 | > 80 | 0 | 2.59 | – | Kd (TTR [1]; [8]): 0.003 ± 0.00078 µM; protein dissociates (tetramer dissociation) (TTR tetramer): 21%
6 | N[C@H](Cc1cc(I)c(Oc2cc(I)c(O)c(I)c2)c(I)c1)C(=O)O (stereo in doubt) [Compound 13, thyroxine, reference compound] | – | – | – | – | – | 75 | – | – | – | % FF 1:1 (WT-TTR; TTR 7.2 μM, inhibitor 7.2 μM (1:1), pH 4.4, 37° C., no inhibitor = 100%): 48%; % FF 1:3 (WT-TTR; TTR 7.2 μM, inhibitor 21.6 μM (1:3), pH 4.4, 37° C., no inhibitor = 100%): 7%; protein dissociates (tetramer dissociation) (TTR tetramer): 27%
7 | COc1cc(C(=O)O)ccc1Oc1ccc(Cl)cc1Cl [Compound 6] | – | 10 | 0 | – | – | > 80 | 0 | – | more effective | –
8 | O=Cc1ccc(Oc2ccc(Cl)cc2Cl)c(O)c1 [Compound 2] | – | – | – | – | 0.0139 ± 0.00501 | > 80 | – | – | – | Kd (TTR [1]; read-out: Dissociation Constant Kd2; pH 4.4): 0.525 ± 0.0601 µM
9 | Oc1cc(Cl)ccc1Oc1ccc(Cl)cc1Cl [Compound 1, Triclosan, reference compound] | – | – | – | – | – | 62 | – | – | – | remaining activity at 7.2 µM (WT-TTR; pH 4.4, read-out: % FF 1:1): 75%; remaining activity at 21.6 µM (WT-TTR; pH 4.4, read-out: % FF 1:3): 66%; remaining activity at 50 µM (WT-TTR): 41%; inhibition at 21.6 µM (WT-TTR; pH 4.4, read-out: inhibition of fibril formation): ~24%; protein dissociates (tetramer dissociation) (TTR tetramer): 47%
10 | O=C(Nc1nnc[nH]1)c1c(Cl)ccc(Cl)c1Cl [Compound 12] | 1.06 ± 0.01 | 11 | 3.6 | 0.47 to 3.5 | 0.12 ± 0.0321 | > 80 | – | – | more effective | inhibition of TTR fibrillization (WT-TTR; TTR 7.2 μM): completely
11 | COc1cc(CCl)ccc1Oc1ccccc1 [Compound 8, 3-Methoxy-4-phenoxybenzyl chloride] | 1.94 ± 0.09 | 25 | 0 | 0.47 to 3.5 | – | > 80 | 0 | 1.94 | – | –
12 | OCc1ccc(Oc2ccc(Cl)cc2Cl)c(O)c1 [Compound 4] | 1.36 ± 0.05 | 12 | 2.6 | 0.47 to 3.5 | 0.0003 ± 0.00014 | > 80 | 11.5 | 1.36 | more effective | Kd (TTR [1]; [8]): 13.8 ± 1.02 µM
13 | Cc1cc(C(=O)Nc2cc(Cl)ccc2O)no1 [Compound C226-2564] | – | – | – | – | – | – | – | – | – | remaining activity at 100 µM (WT-TTR; WT-TTR 7.2 μM, pH 4.4, 37° C.): 96.8%; inhibition at 100 µM (WT-TTR; WT-TTR 7.2 μM, pH 4.4, 37° C.): 3.18%
14 | O=C(NC(c1ccccc1)c1cc(Cl)c2cccnc2c1O)c1cccnc1 (stereo not drawn) [Compound K839-0113] | – | – | – | – | – | – | – | – | – | remaining activity at 100 µM (WT-TTR; WT-TTR 7.2 μM, pH 4.4, 37° C.): 29.6%; inhibition at 100 µM (WT-TTR; WT-TTR 7.2 μM, pH 4.4, 37° C.): 70.4%
15 | COc1ccc(NC(=S)N(CCCN2CCOCC2)Cc2cccnc2)cc1 [Compound C087-0811] | – | – | – | – | – | – | – | – | – | remaining activity at 100 µM (WT-TTR; WT-TTR 7.2 μM, pH 4.4, 37° C.): 98.6%; inhibition at 100 µM (WT-TTR; WT-TTR 7.2 μM, pH 4.4, 37° C.): 1.4%
16 | CCCCN(CC)Cc1c(C)nc2ccc(Cl)cc2c1O [Compound 4358-1230] | – | – | – | – | – | – | – | – | – | remaining activity at 100 µM (WT-TTR; WT-TTR 7.2 μM, pH 4.4, 37° C.): 79.7%; inhibition at 100 µM (WT-TTR; WT-TTR 7.2 μM, pH 4.4, 37° C.): 20.3%
